The results in this text go back to ChEMBL document CHEMBL4152261, “Positional scanning library applied to the human eosinophil cationic protein/RNase3 N-terminus reveals novel and potent anti-biofilm peptides” (Eur J Med Chem, 2018).

By HC50 is commonly meant the concentration that lyses half of the red blood cells. The term IC50 denotes the point on the concentration scale where inhibition reaches its midpoint. One may read the inhibition as the relative decrease from the control value, in per cent. The low end stands for a weak effect, the high end for a strong effect.

For data set [1], the system named is Pseudomonas aeruginosa. Kind of data set: Induction of Pseudomonas aeruginosa PAO1 agglutination after 1 hr by binocular stereo microscopic method. It is filed as functional.
In data set [2] the test system is Pseudomonas aeruginosa. As to the kind of experiment: Bactericidal activity against Pseudomonas aeruginosa PAO1 planktonic cells after 4 hrs by BacTiter-Glo assay. Conditions: PAO1, 4 h, read-out: ED50 (the source's name). In kind it is functional.
Data set [3] in a line: Selectivity index, ratio of IC50 for human MRC5 cells to ED50 for induction of biofilm eradication of Pseudomonas aeruginosa PAO1. It is filed as toxicity.
Data set [4] in a line: Hemolytic activity in sheep RBC after 4 hrs. In kind it is ADME, cell-based, Ovis aries, Erythrocyte. Conditions: sheep red blood cells (erythrocytes).
A short description of data set [5]: Selectivity index, ratio of HC50 for sheep RBC to ED50 for induction of biofilm eradication of Pseudomonas aeruginosa PAO1. It is filed as toxicity. The following applies: sheep red blood cells (erythrocytes).
The subject of data set [6] is Pseudomonas aeruginosa. Kind of data set: Induction of biofilm eradication of Pseudomonas aeruginosa PAO1 after 4 hrs by BacTiter-Glo assay. It is filed as functional. The following applies: PAO1, 4 h, read-out: ED50 (the source's name).
The subject of data set [7] is HepG2. As to the kind of experiment: Cytotoxicity against human HepG2 cells after 4 hrs by MTT assay. It is filed as cell-based. Conditions: HepG2, 4 h. In general terms: Formazan colour is commonly taken as a measure of viable cells.
Data set [8] has as its system MRC5. Kind of data set: Cytotoxicity against human MRC5 cells after 4 hrs by MTT assay. Conditions: MRC5, 4 h. In kind it is cell-based.
The subject of data set [9] is Lipopolysaccharide (LPS). As to the kind of experiment: Displacement of BODIPY TR cadaverine from Pseudomonas aeruginosa LPS by fluorescence assay.
Data set [10] concerns Pseudomonas aeruginosa. Kind of data set: Bactericidal activity against Pseudomonas aeruginosa PAO1 planktonic cells at 1 uM after 4 hrs by BacTiter-Glo assay relative to control. It is filed as functional.
The test system of data set [11] is Lipopolysaccharide (LPS). As to the kind of experiment: Displacement of BODIPY TR cadaverine from Pseudomonas aeruginosa LPS at 1 uM by fluorescence assay relative to control.
Data set [12] is described as follows: Hemolytic activity in sheep RBC at 10 uM after 4 hrs relative to control. The following applies: sheep red blood cells (erythrocytes), read-out: Activity. In kind it is ADME, cell-based, Ovis aries, Erythrocyte.

Take H-RPFIRAQWFAIQHISPRTIAMRAINNYRWR-OH: in data set [1], the MAC came to 0.25 µM. Besides, the EC50 was 0.55 µM in [2] and 2.37 µM in data set [6]. Besides, the selectivity ratio in [3] and in data set [5] was 16 to 60 each time. In [4], this compound registered an HC50 at 4 h of over 150 µM. Further, the IC50 in [7] was 95.8 µM; in data set [8], over 150 µM. In data set [9], the ED50 worked out at 3.42 µM.

H-RPFTRAQIFAIQHISPRTIAMRAINNYRWR-OH yielded an MAC in data set [1] of 0.125 µM. For the same compound, the values for the EC50 in data set [2] and in data set [6] were 0.25 µM and 4.37 µM, respectively. Moreover, the selectivity ratio in data set [3] and in [5] was 16 to 60 each time. The HC50 at 4 h in data set [4] is over 150 µM. Also, the values for the IC50 in data set [7] and in [8] were 172 µM and over 150 µM, respectively. For the same compound, the ED50 in data set [9] is 3.07 µM.

Turning to `CC[C@H](C)[C@H](NC(=O)[C@H](C)NC(=O)[C@H](CCCNC(=N)N)NC(=O)[C@H](CCSC)NC(=O)[C@H](C)NC(=O)[C@@H](NC(=O)[C@@H](NC(=O)[C@H](CCCNC(=N)N)NC(=O)[C@@H]1CCCN1C(=O)[C@H](CO)NC(=O)[C@@H](NC(=O)[C@H](Cc1cnc[nH]1)NC(=O)[C@@H](NC(=O)[C@@H](NC(=O)[C@H](C)NC(=O)[C@H](Cc1ccccc1)NC(=O)[C@H](Cc1c[nH]c2ccccc12)NC(=O)[C@H](CCC(N)=O)NC(=O)[C@H](C)NC(=O)[C@H](CCCNC(=N)N)NC(=O)[C@@H](NC(=O)[C@H](Cc1ccccc1)NC(=O)[C@@H]1CCCN1C(=O)[C@@H](N)CCCNC(=N)N)[C@H](C)O)[C@@H](C)CC)[C@@H](C)CC)[C@@H](C)CC)[C@@H](C)O)[C@@H](C)CC)C(=O)N[C@@H](CC(N)=O)C(=O)N[C@@H](CC(N)=O)C(=O)N[C@@H](Cc1ccc(O)cc1)C(=O)N[C@@H](CCCNC(=N)N)C(=O)N[C@@H](Cc1c[nH]c2ccccc12)C(=O)N[C@@H](CCCNC(=N)N)C(=O)O`, the MAC in data set [1] amounted to 0.25 µM. For the same compound, the results for the EC50 in data set [2] and in [6] were 0.44 µM and 3.19 µM, respectively. For the same compound, the selectivity ratio in data set [3] and in data set [5] was 16 to 60 in each case. This compound returned a concentration for 50% haemolysis (HC50) at 4 h in data set [4] of over 100 µM. In addition, the results for the IC50 in data set [7] and in data set [8] were 59.6 µM and over 100 µM, respectively. In data set [9], this compound yielded an ED50 of 1.66 µM.

As to `CC[C@H](C)[C@H](NC(=O)[C@H](C)NC(=O)[C@H](CCCNC(=N)N)NC(=O)[C@H](CCSC)NC(=O)[C@H](C)NC(=O)[C@@H](NC(=O)[C@@H](NC(=O)[C@H](CCCNC(=N)N)NC(=O)[C@@H]1CCCN1C(=O)[C@H](CO)NC(=O)[C@@H](NC(=O)[C@H](Cc1cnc[nH]1)NC(=O)[C@H](CCC(N)=O)NC(=O)[C@@H](NC(=O)[C@H](C)NC(=O)[C@H](Cc1ccccc1)NC(=O)[C@H](Cc1c[nH]c2ccccc12)NC(=O)[C@H](CCC(N)=O)NC(=O)[C@H](C)NC(=O)[C@H](CCCNC(=N)N)NC(=O)[C@@H](NC(=O)[C@H](Cc1ccccc1)NC(=O)[C@@H]1CCCN1C(=O)[C@@H](N)CCCNC(=N)N)[C@@H](C)O)[C@@H](C)CC)[C@@H](C)CC)[C@H](C)O)[C@@H](C)CC)C(=O)N[C@@H](CC(N)=O)C(=O)N[C@@H](CC(N)=O)C(=O)N[C@@H](Cc1ccc(O)cc1)C(=O)N[C@@H](CCCNC(=N)N)C(=O)N[C@@H](Cc1c[nH]c2ccccc12)C(=O)N[C@@H](CCCNC(=N)N)C(=O)O`, the MAC in [1] was found to be 1 µM. The EC50 turned out to be 1.34 µM in data set [2] and 6.62 µM in data set [6]. Moreover, the selectivity ratio in data set [3] and in data set [5] was 16 to 60 in each case. The HC50 at 4 h in data set [4] was over 150 µM. Also, the Activity in data set [10] is 50%. This compound yielded an inhibition in [11] of 40%. Also, in data set [12], the hemolysis at 4 h, 10 µM stood at 10%. In addition, the IC50 in data set [7] was 74.4 µM; in data set [8], over 150 µM. In data set [9], this compound registered an ED50 of 2.85 µM.
